One data set has as its system West Nile Virus (WNV). In words: West Nile Virus (WNV) cytopathic effect assay. Format: cell-based. The conditions noted are these: Vero cells. The method, then: Attached cells were washed with PBS without Ca^+2/Mg^+2. 100 μl of 0.2% crystal violet in 20% methanol was thereafter added and the cells were incubated for 10 minutes at room temperature. At the end of incubation time, cells were washed twice with double-distilled water and 100 μl of 10% SDS was added. Dye bound to the cell is released by SDS and the absorption by the dye is measured by colorimetry at 570 nm. The amount of stained cells is then considered to be proportional to the measured absorption by the dye
Vero cells were seeded at the density of 2×10^4 cells/well in 96-well plates, 20 hours before infection. The cells were treated with PBS or with various concentrations of AS101 before (1 hour or 5-10 minutes), or after (1 hour or 24 hours) virus inoculation. WNV at MOI (multiplicity of infection) of 0.005 PFU (plaque forming units) per cell was added to the cells and allowed undergo absorption for 1 hour at 37° C. The medium was removed and the cells were washed twice with PBS and overlaid with fresh medium. Cells were then incubated at 37° C. with 5% CO2 for 3-5 days. The development of a cytopathic effect was monitored by light microscopy.
For orientation: Damage to the host cells serves as the signal in cytopathic effect assays.

Data set [1] has as its system αVβ3 integrin. The data set is described as follows: Anti-αVβ3 integrin antibody binding assay. Type of data set: cell-based. The method, then: An anti-αVβ3 integrin mediated cell adhesion kit (Millipore [Chemicon], Temecula, Calif.) was used to determine cells attachment to anti-αVβ3 integrin antibody, in the presence or absence of AS101. Briefly, Vero or BGM cells were mixed with PBS or with AS101 (1-10 μg/ml) and were added to anti-αVβ3 integrin coated 96-well plates, and to a control 96-well plate (containing anti-mouse IgG) in triplicate. The plates were incubated at 37° C., 5% CO2, for 2 hours, and the cells were then stained and extracted according to the kit instructions, using the staining solution and extraction buffer supplied with the kit. Cell concentration was measured by a spectrophotometer at 540 nm.

In data set [2] the target is T1, αVβ3 integrin (Homo sapiens, UniProt P05106+P06756).
T1 construct: purchased Chemicon
The data set is described as follows: Integrin-WNV attachment assay. Format: binding. The conditions noted are these: purified integrin 75 ng/well. The method, then: A solid-phase binding assay was performed according to a method previously described by Sharma et al [Virology, 239:150, 1997]. WNV was diluted in 50 mM carbonate-bicarbonate buffer, pH 9.6, to a concentration of 10^6 PFU/ml, and 100 μl aliquots were added to the wells of 96-well Nunc-Maxisorp ELISA plates. The plates were incubated overnight at 4° C., washed three times with washing buffer (20 mM Tris-HCL [pH 7.5], 150 mM NaCl), and then blocked for 2 hours at room temperature with […] of blocking buffer containing 20 mM Tris-HCL, pH 7.5, 150 mM NaCl, 5% Bovine serum albumin (BSA). The wells were then washed again, and purified αVβ3 integrin (75 ng/well), diluted in binding buffer (20 mM Tris-HCL, pH 7.5, 150 mM NaCl, 5% BSA, 2 mM CaCl2, 1 mM MgCl2) containing various concentrations of AS101, was added to the wells. After 2 hours of incubation at 37° C., the wells were washed three times with washing buffer. Bound integrin was detected with mouse monoclonal anti-human αVβ3 integrin antibody (Millipore [Chemicon]) diluted 1:1000 in 100 μl binding buffer. Incubation continued for 1 hour at 37 C, and then the wells were washed again. […] Colour development was stopped by the addition of 1 N H2SO4, and plates were read in a spectrophotometer at 492 nm.

The test system of another data set is U937 cells. The data set is described as follows: Fluorescence-based flow cytometry analysis of cell death. On the set-up: species or system human. The source says: Fluorescence-based flow cytometry was used to measure the effect of tellurium-containing compounds on chemotherapy-induced cell death. Accumulation of cells in the sub-G1 fraction, increased proportion of annexin V-positive and propidium iodide-positive cells and increased caspase activity were each used as indicators of increased cell death, using standard procedures.
A general note: Flow cytometry measures light scatter and fluorescence of single cells or particles in a stream.

The next data set deals with Akt. The data set is described as follows: Western blot analysis of Akt. Format: cell-based, human. The method, then:
Phosphorylation of Akt was determined by Western blot analysis.

In another data set the test system is Bcl2. In words: Western blot analysis of Bcl2. Type of data set: cell-based, human. The conditions noted are these: AS101 added to ARA-C. From the text: The expression of the survival factor Bcl2 was examined via Western blot analysis in U937 cells treated with the chemotherapeutic agent ARA-C.
(A western blot detects proteins with antibodies after separation by electrophoresis.)

Data set [3] concerns leukemic cells from AML patients. In words: Sensitization of leukemic cells from AML patients to chemotherapy. Type of data set: cell-based, human. The method, then:
2×10^4 per 200 μl cells were seeded in 96-microwell flat bottom plates. After 24 hours, the tested compound(s) (e.g., AS101, ARA-C, DTNB, anti-VLA-4 antibody) was added, and the cells were incubated overnight with the tested compound(s). The XTT solution was then added and the cells were incubated for 4 hours at 37° C. Cell viability was than evaluated by measuring absorbance at 450 nm using a Microplate Spectrophotometer (Spectra MAX Plus, Molecular Devices).
Bone marrow samples from patients diagnosed, with AML, but not yet treated, were obtained and grown in vitro. The leukemic cells obtained therefrom were tested for levels of VLA-4 and VLA-5 via fluorescence based cytometry, using FITC (fluorescein isothiocyanate)-conjugated anti-VLA-4 and anti-VLA-5 antibodies, using standard procedures. The cells were grown on both fibronectin and BSA, and the effect of AS101 on chemotherapy resistance was measured.

The conditions of data set [4]: rats, intravenous and intramuscular administration; cited from earlier work.
Where [5] appears, read: U937 on BSA, AS101 combined with ARA-C.
[6] abbreviates: U937 on fibronectin, AS101 combined with ARA-C.
[7] abbreviates: U937 on fibronectin, agent alone.

Structures are written as SMILES.

T1 sequence (P06756 31-889 limits assumed): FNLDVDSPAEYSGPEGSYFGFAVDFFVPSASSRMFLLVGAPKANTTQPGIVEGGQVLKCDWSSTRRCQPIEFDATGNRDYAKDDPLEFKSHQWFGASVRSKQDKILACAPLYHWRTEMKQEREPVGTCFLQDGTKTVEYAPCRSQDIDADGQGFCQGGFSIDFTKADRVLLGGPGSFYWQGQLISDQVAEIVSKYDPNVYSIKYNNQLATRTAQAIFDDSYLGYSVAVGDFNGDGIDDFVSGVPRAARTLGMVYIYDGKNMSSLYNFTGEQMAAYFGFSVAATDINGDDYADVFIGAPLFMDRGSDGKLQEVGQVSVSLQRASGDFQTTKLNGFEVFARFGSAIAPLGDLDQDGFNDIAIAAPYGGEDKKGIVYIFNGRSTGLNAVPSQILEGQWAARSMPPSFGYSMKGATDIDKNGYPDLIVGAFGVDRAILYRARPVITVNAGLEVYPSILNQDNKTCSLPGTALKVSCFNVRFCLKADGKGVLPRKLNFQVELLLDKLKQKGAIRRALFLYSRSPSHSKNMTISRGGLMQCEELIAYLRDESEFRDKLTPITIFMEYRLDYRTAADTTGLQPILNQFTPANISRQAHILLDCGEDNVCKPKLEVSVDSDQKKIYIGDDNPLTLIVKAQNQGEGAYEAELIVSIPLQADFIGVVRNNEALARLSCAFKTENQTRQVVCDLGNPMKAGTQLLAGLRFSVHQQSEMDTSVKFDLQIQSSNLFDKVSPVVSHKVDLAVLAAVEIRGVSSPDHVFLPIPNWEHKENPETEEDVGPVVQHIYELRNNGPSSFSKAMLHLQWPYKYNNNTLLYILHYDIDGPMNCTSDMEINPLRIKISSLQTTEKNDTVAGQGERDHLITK
T1 sequence (P06756 891-1048 limits assumed): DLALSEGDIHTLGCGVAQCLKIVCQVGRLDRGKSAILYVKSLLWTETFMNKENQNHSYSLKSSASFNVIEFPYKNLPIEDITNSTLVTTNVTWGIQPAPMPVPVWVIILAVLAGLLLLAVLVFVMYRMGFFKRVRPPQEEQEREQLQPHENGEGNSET
T1 sequence (P05106 27-788): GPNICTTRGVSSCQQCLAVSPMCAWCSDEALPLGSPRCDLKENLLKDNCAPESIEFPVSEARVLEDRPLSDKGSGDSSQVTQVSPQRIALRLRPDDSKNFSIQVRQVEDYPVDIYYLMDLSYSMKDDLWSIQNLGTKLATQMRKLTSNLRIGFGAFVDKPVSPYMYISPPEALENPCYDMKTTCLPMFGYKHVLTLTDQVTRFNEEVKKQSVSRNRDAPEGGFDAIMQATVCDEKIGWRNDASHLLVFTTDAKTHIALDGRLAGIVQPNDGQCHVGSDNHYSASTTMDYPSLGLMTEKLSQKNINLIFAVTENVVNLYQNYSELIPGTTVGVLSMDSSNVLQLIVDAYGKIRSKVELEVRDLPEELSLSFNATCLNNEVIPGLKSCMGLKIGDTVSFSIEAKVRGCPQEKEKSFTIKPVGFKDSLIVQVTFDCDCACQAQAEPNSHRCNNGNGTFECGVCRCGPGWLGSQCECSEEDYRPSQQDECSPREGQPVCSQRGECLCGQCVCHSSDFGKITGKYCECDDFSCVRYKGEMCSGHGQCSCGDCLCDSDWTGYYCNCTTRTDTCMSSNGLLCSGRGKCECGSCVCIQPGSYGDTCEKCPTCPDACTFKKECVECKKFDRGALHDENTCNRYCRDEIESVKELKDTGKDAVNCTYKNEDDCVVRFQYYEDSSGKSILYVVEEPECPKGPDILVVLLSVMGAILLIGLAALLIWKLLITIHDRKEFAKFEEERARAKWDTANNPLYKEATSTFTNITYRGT

For the compound `Cl[TeH]1(Cl)(Cl)OCCO1` [AS101, ammonium trichloro(dioxyethylene-O,O′)tellurate], the WNV cytopathic effect entry with West Nile Virus (WNV) (2.5 μg/ml added 5-10 minutes before inoculation) is “no cytopathic effect is observed”; in the data set on West Nile Virus (WNV) (added 1 hour or 24 hours after inoculation, data not shown), “did not exhibit such an inhibitory effect”. Besides, in the data set with West Nile Virus (WNV) (72 hours after infection), the “viability of WNV-infected cells (crystal violet)” value is listed as “dose-dependent protective effect”. For the same compound, in the data set with αVβ3 integrin [1] (BGM cells, 10 μg/ml, data not shown), the “inhibition of binding of anti-αVβ3 integrin antibody to cells” value came to 64%. In addition, in the data set on αVβ3 integrin [1] (Vero cells, 1-10 μg/ml), the “binding of anti-αVβ3 integrin antibody to cells” value is “inhibited the binding of anti-αVβ3 integrin antibody to Vero cells in a dose-dependent manner”. Moreover, the “attachment of αVβ3 integrin to immobilized WNV” value at αVβ3 integrin [2] was “directly inhibited the attachment of αVβ3 integrin to WNV in a dose dependent manner”. Besides, the “caspase-3 activity, ARA-C and AS101 in combination vs ARA-C alone” value in the data set with U937 cells (U937 on BSA) was “the same degrees of caspase-3 activity”. Moreover, the “percentage of annexin V-positive and propidium iodide-positive cells” value was “only slightly above the percentage obtained with ARA-C alone” in the data set with U937 cells (setting [5]); “increased the percentage of annexin V-positive and propidium iodide-positive cells considerably” in the data set on U937 cells (setting [6]); “no effect alone” in the data set with U937 cells (setting [7]). Also, the “percentage of cells in the sub-G1 fraction” value with U937 cells (setting [5]) is given as “did not provide significantly different results than ARA-C alone”; in the data set with U937 cells (setting [6]), “over 80%”; in the data set on U937 cells (setting [7]), “no effect alone”. Also, the “percentage of cells with high caspase-3 activity” value in the data set with U937 cells (setting [6]) is “high percentage of cells with increased caspase-3 activity”; in the data set with U937 cells (setting [7]) it was “little or no effect”. Also, the “total amounts of Akt” value in the data set with Akt (U937) is listed as “remained unchanged”. Besides, in the data set with Akt (U937 on fibronectin, dose-dependent), the “level of phosphorylated Akt (pAkt)” value is “reduced the level of phosphorylated Akt”. In addition, the results for the “expression of Bcl2” value in the data set on Bcl2 (U937 on BSA) and in the data set with Bcl2 (U937 on fibronectin) were “no effect” and “did not decrease expression of Bcl2 in cells plated on fibronectin (FN) unless AS101 was added”, respectively. The “inhibition of resistance to ARA-C” value in data set [3] (8 AML patients with high VLA-4 levels, on fibronectin, 0.5 or 1 μg/ml AS101) is “inhibited the resistance to ARA-C of high-VLA-4 cells on fibronectin in a dose-dependent manner”; in data set [3] (Patient B, high VLA-4, on fibronectin) it was “inhibited the resistance to ARA-C of high-VLA-4 cells on fibronectin in a dose-dependent manner”. For the same compound, in data set [3] (high-VLA-4 cells on fibronectin), the “sensitization to ARA-C, combination of AS101 and DTNB vs either alone” value was “did not sensitize high-VLA-4 cells grown on fibronectin to a greater degree than did either AS101 or DTNB alone”. In data set [3] (low VLA-4 leukemic cells, fibronectin-coated plates), the “effect on viability of cells exposed to ARA-C, alone or in combination” value is given as “no effect either alone or in combination”. The “LD50 relative to the immunologically effective dose” value in data set [4] is given as 500-1000 folds.

Values taken from patent publication US20100297256A1, “METHODS AND COMPOSITIONS FOR INHIBITING INTEGRINS USING TELLURIUM-CONTAINING COMPOUNDS” (priority 2007, published 2010).
